Measured values published in US20120220577A1, “GLYCINE B ANTAGONISTS” (Merz Pharma GmbH & Co KgaA, priority 2009, published 2012).

Experiments:
[1] = target: T1, glycine binding pocket of the NMDA receptor (Rattus norvegicus, UniProt P35439); assay: [3H]MDL-105,519 displacement studies (rat cortical membranes); settings: displacement of 2 nM [3H]-MDL-105,519, rat cortical membranes; read-out: NMDA-MDL 105519-r-CTX - IC50
T1 construct: For isolation of the cell membranes, the cortices are homogenized; from tissue; host or cells: rat cerebral cortex membranes (male Sprague-Dawley)

[2] = target: T2, NMDA receptor glycine B site (Rattus norvegicus, UniProt P35439); assay: Calcium FLIPR studies, rat cortical neurons (NMDA/D-Serine induced intracellular calcium); type: cell-based; parameters: Primary neurons are prepared from cortices of embryonal rats at day 17 of pregnancy; endogenous in cells; host or cells: primary rat cortical neurons (E17, 11-13 DIV); settings: rat cortical neurons; stimulation with 30 μM NMDA and 1 μM D-Serine; antagonist pre-incubated 10 min; read-out: NMDA-FLIPR-rCTX-NAM - IC50
Description: (§1) Antagonistic potencies of the test compounds are functionally evaluated using electrophysiological whole cell patch-clamp recordings and/or fluorometric intracellular Ca^2+-imaging (FLIPR) screens.
Sprague-Dawley rat embryos (E 17) are decapitated and neocortices are dissected, trypsinized and carefully triturated. The cell suspension is plated on poly-D-lysine pre-coated 96-well Plates (Greiner, Frickenhausen, Germany) at a cell density of 55.000 cells/well. The neurons are cultivated in Neurobasal media containing B27-Supplement and […] L-Glutamine (Biochrom) at 37° C. in a humidified atmosphere of 5% CO2/95% air. Medium is exchanged completely at day 4 and to 50% on day 7. At the time of experiments neurons are 11-13 days in vitro.
The increase of intracellular calcium after stimulation with 30 μM NMDA and 1 μM D-Serine is measured using the fluorometric imaging plate reader (FLIPR) and the Calcium-4-Kit (both Molecular Devices, Ismaning, Germany). Prior to addition of agonist or antagonist (5 different concentrations, n=5) the medium is aspirated and cells are washed once before loading with 150 μL of loading buffer (1 h at room temperature), consisting of Ca-4 sensitive dye reconstituted in extracellular bath solution, pH 7.3. Subsequently, plates are transferred to FLIPR to detect increases in intracellular calcium after the addition of agonist, measured as relative fluorescence units (RFU). Antagonists are pre-incubated with the cells for 10 min at room temperature before the addition of the agonist and co-agonist.
The fluorescence signal increase after addition of agonist reflects the increase of intracellular calcium. Inconsistencies in the amount of cells per well are normalised by using the spatial uniformity correction of the FLIPR software (Screenworks, Molecular Devices). The mean of replicated temporal data (n=5) is calculated and used for graphical representation. For the evaluation of the antagonistic potency, the calcium changes in response to different concentrations of antagonist are determined using an area under the curve (AUC) calculation. All responses (RFU-values) are determined as percentage of control (=maximum response at 30 μM NMDA and 1 μM D-Serine). IC50 values are calculated according the four parameter logistic equation using GraFit (Erithacus Software).

[3] = target: T2, NMDA receptor glycine B site; assay: Whole cell patch-clamp recordings, rat hippocampal neurons (NMDA/D-Serine currents); type: cell-based; settings: NMDA 200 μM + D-Serine 1 μM, -70 mV, read-out: NMDA-PC-r-HIC-NAM - IC50
Description: as §1
Cell preparation is performed as described by Parsons, et al. (Neuropharmacology, 1998, 37(6), 719-727). The female Sprague-Dawley rat is anaesthetised by placing in a saturated CO2-euthanasia chamber under further quiet CO2-influx. Under these conditions the rat loses consciousness after a few seconds and is then sacrificed by cervical dislocation. After opening the abdominal cavity, embryos (E20) are removed and stored in ice cold Ca^2+- and Mg^2+-free Hank's Buffered Salt Solution (pH 7.3), containing 4 g/l glucose (HBSS-CMF). Hippocampi are then isolated from the brains of at least 8 embryos after decapitation, transferred into ice cold HBSS-CMF and washed 3 to 4 times.
Hippocampi are pre-incubated for 8 min with a 0.66% trypsin (Sigma-Aldrich) and 0.1% (20 U/ml) DNAase solution (Sigma-Aldrich) in Ca^2+-free Phosphate Buffered Saline (PBS-CF) and washed 3 times with HBSS-CMF. Cells are then mechanically dissociated by trituration in a PBS-CF solution containing 0.05% (10 U/ml) DNAase and 0.3% of the trypsin inhibitor ovomucoid (all from Sigma-Aldrich). The cells are then centrifuged at 180×g for 10 minutes, and the cell pellet re-suspended in basal Minimum essential medium (MEM, Invitrogen, Karlsruhe, Germany), again carefully triturated to ensure maximal dissociation and finally plated in the flexiPERM inserts (Thermo Fisher Scientific, Langenselbold, Germany) at a density of 15×10^3 cells/cm^2 (0.5 ml/insert) onto poly-DL-ornithine (Sigma) and mouse laminin (Invitrogen) pre-coated plastic petri dishes. After 1 hour the cells become attached to the bottom of the dish and the inserts may be removed. The cells are then nourished with 2 ml MEM supplemented with 5% foetal calf serum (FCS) and 5% horse serum and incubated at 37° C. with 95% air and 5% CO2 at 95% humidity. After 4 days in vitro (DIV) further glial mitosis is inhibited by adding 10 μl of AraC (5 μM endconcentration). The medium is completely exchanged after an additional 2 DIV and again, but only partly (50%), after 8 DIV. The cells are used for electrophysiological recordings after 11-15 DIV.
Cells are visualised using an inverted microscope and selected for patching based upon their position and morphology. Voltage clamp recordings are made in the whole cell configuration of the patch clamp technique at a holding potential of −70 mV with the aid of an EPC-10 amplifier in combination with pipette manipulator. Patch clamp pipettes are pulled from borosilicate glass using a horizontal puller (P-97 Puller, Sutter Instruments, USA) and, when filled with intracellular solution, have resistances of 1-4 MΩ.
Solutions are delivered via a home-made gravity driven very fast perfusion system (<10 ms) including valves to switch flow on and off in combination with a stepper motor-driven double-barrelled theta glass application pipette in order to expose cells to either agonist-free or agonist-containing solutions in presence or absence of antagonist.
The intracellular solution used consists of: 120 mM CsCl, 10 mM EGTA, 1 mM MgCl2, 200 μM CaCl2, 10 mM glucose and 22 mM tetraethyl ammonium chloride (TEA-CL). The corresponding extracellular bath solution contains: 140 mM NaCl, 3 mM KCl, 10 mM glucose, 10 mM HEPES, 1.5 mM CaCl2 and 4.5 mM sucrose (all from Sigma-Aldrich) pH 7.3, and is supplemented with 0.3 μM tetrodotoxin (TTX, Tocris, Bristol, U.K.) to block voltage-activated sodium channels and 0.25 μM bicuculline (Sigma-Aldrich) to block GABAA receptors. […]

| Structure (SMILES) | IC50 [1] [nM] | melting point | IC50 [2] [nM] | IC50 [3] [nM] |
| --- | --- | --- | --- | --- |
| O=C(COc1cc(C(=O)O)cc2cc(Cl)cc(Cl)c12)Nc1cccc(OCc2nnn[nH]2)c1OCc1nnn[nH]1 [Example 128, 4-{[2,3-Bis-(1H-tetrazol-5-ylmethoxy)-phenylcarbamoyl]-methoxy}-5,7-dichloro-naphthalene-2-carboxylic acid] | 1370 | 246 to 247 °C |  |  |
| NC(=O)c1cccc(NC(=O)COc2cc(C(=O)O)cc3cc(Cl)cc(Cl)c23)c1 [Example 113, 4-[(3-Carbamoyl-phenylcarbamoyl)-methoxy]-5,7-dichloro-naphthalene-2-carboxylic acid] | 284 | > 250 °C |  |  |
| O=C(O)CCc1cccc(NC(=O)COc2cc(C(=O)O)cc3cc(Cl)cc(Cl)c23)c1 [Example 96, 4-{[3-(2-Carboxy-ethyl)-phenylcarbamoyl]-methoxy}-5,7-dichloro-naphthalene-2-carboxylic acid] | 393 | > 230 °C (dec.) | 5820 |  |
| O=C(O)COc1cc(CO)ccc1NC(=O)COc1cc(C(=O)O)cc2cc(Cl)cc(Cl)c12 [Example 122, 4-[(2-Carboxymethoxy-4-hydroxymethyl-phenylcarbamoyl)-methoxy]-5,7-dichloro-naphthalene-2-carboxylic acid] |  | 244 to 245 °C |  |  |
| O=C(COc1cc(C(=O)O)cc2cc(Cl)cc(Cl)c12)Nc1ccc(O)cc1 [Example 8, 5,7-Dichloro-4-[(4-hydroxyphenylcarbamoyl)-methoxy]-naphthalene-2-carboxylic acid] | 1850 |  |  | 287 |
| O=C(COc1cc(C(=O)O)cc2cc(Cl)cc(Cl)c12)Nc1cccc(OCC(=O)N2CCOCC2)c1 [Example 47, 5,7-Dichloro-4-{[3-(2-morpholin-4-yl-2-oxo-ethoxy)-phenylcarbamoyl]-methoxy}-naphthalene-2-carboxylic acid] | 218 |  |  | 87 |
| O=C(O)COc1ccc(NC(=O)COc2cc(C(=O)O)cc3cc(Cl)cc(Cl)c23)c(OCC(=O)O)c1 [Example 83, 4-[(2,4-Bis-carboxymethoxy-phenylcarbamoyl)-methoxy]-5,7-dichloro-naphthalene-2-carboxylic acid] | 252 | > 220 °C (dec.) | 1320 |  |
| O=C(O)COc1ccc(CO)cc1NC(=O)COc1cc(C(=O)O)cc2cc(Cl)cc(Cl)c12 [Example 94, 4-[(2-Carboxymethoxy-5-hydroxymethyl-phenylcarbamoyl)-methoxy]-5,7-dichloro-naphthalene-2-carboxylic acid] | 150 | 185 to 187 °C (dec.) | 1050 |  |
| O=C(COc1cc(C(=O)O)cc2cc(Cl)cc(Cl)c12)NCc1ccccn1 [Example 103, 5,7-Dichloro-4-{[(pyridin-2-ylmethyl)-carbamoyl]-methoxy}-naphthalene-2-carboxylic acid] | 430 | > 240 °C (dec.) | 8550 |  |
| O=C(COc1cc(C(=O)O)cc2cc(Cl)cc(Cl)c12)Nc1ccccc1-c1nnn[nH]1 [Example 85, 5,7-Dichloro-4-{[2-(1H-tetrazol-5-yl)-phenylcarbamoyl]-methoxy}-naphthalene-2-carboxylic acid] | 233 | 247 to 248 °C | 930 |  |
| N#Cc1ccccc1NC(=O)COc1cc(C(=O)O)cc2cc(Cl)cc(Cl)c12 [Example 82, 5,7-Dichloro-4-[(2-cyano-phenylcarbamoyl)-methoxy]-naphthalene-2-carboxylic acid] | 440 | > 250 °C |  |  |
| O=C(COc1cc(C(=O)O)cc2cc(Cl)cc(Cl)c12)NCc1ccc(Cc2nnn[nH]2)cc1 [Example 120, 5,7-Dichloro-4-{[4-(1H-tetrazol-5-ylmethyl)-benzylcarbamoyl]-methoxy}-naphthalene-2-carboxylic acid] |  | 247 to 248 °C |  |  |
| O=C(COc1cc(C(=O)O)cc2cc(Cl)cc(Cl)c12)NCc1ccccc1Cc1nnn[nH]1 [Example 118, 5,7-Dichloro-4-{[2-(1H-tetrazol-5-ylmethyl)-benzylcarbamoyl]-methoxy}-naphthalene-2-carboxylic acid] |  | 239 to 240 °C |  |  |
